The results in this text go back to patent US6767903B1, “New7α, 17α-bis-alkylated testosterone derivatives and their use in long-term therapy of androgen-dependent diseases” (Schering AG, priority 1998, dated 2004).

SMILES strings stand for the structures. Read-outs that look alike come from different tables or passages of the source. Some results are limits rather than exact numbers.

For the test, the system named is human prostate cancer cell line LNCaP. The test is described as follows: Antiproliferation test with the human prostate cancer cell line (LNCaP). The format is cell-based. As to conditions: LNCaP cells; for IC50: growth stimulated by 0.1 nM R1881, 7 days, MTT readout, read-out: Antiandrogeneity IC50 in the presence of 0.1 nM of R1881; for Androgeneity at 1 μM: test compound at 1 μM, growth stimulation by 0.1 nM of R1881 was set = 100%. An excerpt:
Antiproliferation Test with the Human Prostate Cancer Cell Line (LNCaP)
The human prostate cancer cell line LNCaP [American Type Culture Collection (ATCC)=Accession No.: CRL 1740; Horoszewicz et al., Cancer Research, 43 pp. 1809-18, 1983] was isolated from the lymph node metastasis of a prostate cancer patient. It expresses the androgen receptor and can be stimulated in growth by androgens. The androgen-mediated growth stimulation can be blocked by simultaneous administration of antiandrogens. The antiandrogenic active strength (IC50) of test compounds can be determined by dose-action correlations.
The cells are cultivated in RPMI 1640 medium with penicillin (10,000 units/l), streptomycin (100 mg/l), glutamine ([…]), 10% fetal calf serum and 0.1 nM of the synthetic androgen R1881 (Metribolone, Roussel).
Day 1: Sowing of the cells in a density of 5,000-6,000/100 μl/hole in 96-hole plates. Adding test compound (100 μl/hole doubly concentrated) to the culture medium with 0.2 nM of R1881 (yields 0.1 nM final concentration). Incubation of the cells for 72 or 96 hours at 37° C., 5% CO2, 90% relative atmospheric humidity. In the culture medium, the fetal calf serum is replaced by 5% activated carbon-treated (steroid-free) serum.
Day 3 or 4: Medium change: In each case in 50% of the medium, inclusive test compounds are replaced by fresh medium. Incubation of the cells for 96 or 72 hours at 37° C., 5% CO2, 90% relative atmospheric humity.
Day 7: Adding 25 μl of MTT solution per hole {MTT=(3[4,5-dimethylthiazol-2-yl]-2,5-diphenaltetrazolium bromide (thiazolyl blue}. Incubation is for 3 hours at 37° C., 5% CO2, 90% relative atmospheric humidity. After the removal of the supernatant, addition of 100 μl of DMSO per hole. Measurement of the optical density at […].
The antiandrogens OH-flutamide and casodex that are found in clinical practice were tested, as well as the compound EM-101 (N-butyl, N-methyl-11-(17′β-hydroxy-4′-androsten-3′-on-7′α-yl)undecanamide of WO 91/00732.

Consider `CC12CCC(=O)C=C1CC(CCCCCCCCCC[S+]([O-])c1ccccc1)C1C2CCC2(C)C1CCC2(O)C(F)(F)C(F)(F)F` (stereo not drawn) [Example 20, 17β-Hydroxy-17α-(1,1,2,2,2-pentafluoroethyl)-7α-[10-(phenylsulfinyl)decyl]androst-4-en-3-one], for which the IC50 is 200 nM and the “Androgeneity at 1 μM” value is reported as 0%.

For `CCCCN(C)C(=O)CCCCCCCCCC[C@@H]1CC2=CC(=O)CC[C@]2(C)[C@H]2CC[C@]3(C)[C@@H](O)CC[C@H]3[C@H]12` [EM-101, N-butyl, N-methyl-11-(17′β-hydroxy-4′-androsten-3′-on-7′α-yl)undecanamide], the IC50 worked out at 4440 nM and the “Androgeneity at 1 μM” value was determined as 0%.

Take `CC(O)(CS(=O)(=O)c1ccc(F)cc1)C(=O)Nc1ccc(C#N)c(C(F)(F)F)c1` (stereo not shown) [Casodex]: the “Androgeneity at 1 μM” value is reported as 7%. In addition, the half-inhibitory concentration (IC50) (Homo sapiens, 168 h) came out at 440 nM.

For the compound `C[C@]12CCC(=O)C=C1C[C@@H](CCCCCCCCCO)[C@@H]1[C@@H]2CC[C@@]2(C)[C@H]1CC[C@]2(C)O` [Example 53, 17β-Hydroxy-7α-(9-hydroxynonyl)-17α-methylandrost-4-en-3-one], the “Androgeneity at 1 μM” value is 0%. For the same compound, the IC50 (Homo sapiens, 168 h) was 40 nM.

`CC(C)(O)C(=O)Nc1ccc([N+](=O)[O-])c(C(F)(F)F)c1` [OH-flutamide]: the IC50 was greater than 10000 nM and the “Androgeneity at 1 μM” value was 144%.

What is called IC50 is the concentration needed to halve the response being measured.
